Assay [1] addresses T1, SARS-CoV-2 PLpro (nsp3 1564–1878) (Severe acute respiratory syndrome coronavirus 2, UniProt P0DTD1). The experiment in a line: biochemical. The settings on record: high concentration screen, read-out: % of control remaining. More on the design: FRET-quenched peptide (Pro3) cleavage by PLpro, 10 min pre-incubation, slope over 20 min, normalised to no-compound control.
Assay [2] concerns the target T1, SARS-CoV-2 PLpro (nsp3 1564–1878). The experiment in a line: biochemical. More on the design: FRET-quenched peptide (Pro3) cleavage by PLpro, 10 min pre-incubation, slope over 20 min, normalised to no-compound control. The following applies: low concentration screen, read-out: % of control remaining.

We go through 31 compounds from paper PMC8286840, “Identifying SARS-CoV-2 antiviral compounds by screening for small molecule inhibitors of Nsp3 papain-like protease” (Biochemical Journal, 2021).

Where a name gives a salt, the structure may show the parent alone. Read-outs that look alike come from different tables or passages of the source.

For `COc1nccc(-c2c(-c3ccc(F)cc3)ncn2C2CCNCC2)n1` [SB242235], the remaining activity at 3.75 µM in assay [1] (Well no.=2701) stood at 105%. Further, the remaining activity at 1.25 µM in assay [2] (Well no.=2701) is 105%.
With `NC(N)=NCCC[C@H](NC(=O)COCC(c1ccccc1)c1ccccc1)C(=O)O` [SB290157 (trifluoroacetate)], in assay [1] (Well no.=8404), the remaining activity at 3.75 µM came out at 92.8%. Further, the remaining activity at 1.25 µM in assay [2] (Well no.=8404) came out at 94.2%.
On to `CCOC(=O)[C@H](Cc1ccc([N+](=O)[O-])cc1)NC(=O)c1ccccc1` [SB297006], for which the remaining activity at 3.75 µM in assay [1] (Well no.=8132) was 97.6%; in assay [1] (Well no.=8211), 102%. Further, in assay [2] (Well no.=8132), the remaining activity at 1.25 µM is 103%.
With `CN(C)CCOc1ccc(-c2nc(-c3ccncc3)c(-c3ccc4c(c3)CC/C4=N\O)[nH]2)cc1` [SB590885], the remaining activity at 3.75 µM in assay [1] (Well no.=2749) came to 99.9%. In assay [2] (Well no.=2749), the remaining activity at 1.25 µM was found to be 101%.
As for `O=C(Nc1ccccc1Br)N[C@@H]1CCN(c2ccc(C(F)(F)F)cn2)C1` [SB705498], the remaining activity at 3.75 µM in assay [1] (Well no.=4735) was 106%. Moreover, the remaining activity at 1.25 µM in assay [2] (Well no.=4735) was determined as 103%.
Regarding `Oc1ccc(-c2nc(-c3ccc(F)cc3)c(-c3ccncc3)[nH]2)cc1` [SB 202190 - 4-[4-(4-Fluorophenyl)-5-(4-pyridinyl)-1H-imidazol-2-yl]phenol], the remaining activity at 3.75 µM in assay [1] (Well no.=2380) is 94.8%. In assay [2] (Well no.=2380), the remaining activity at 1.25 µM amounted to 96.6%.
In the case of `Oc1ccc(-c2nc(-c3ccc(F)cc3)c(-c3ccncc3)[nH]2)cc1` [SB 202190], the remaining activity at 3.75 µM in assay [1] (Well no.=2614) came to 95.5%. Moreover, the remaining activity at 1.25 µM in assay [2] (Well no.=2614) came to 95%.
Take `C[S+]([O-])c1ccc(-c2nc(-c3ccc(F)cc3)c(-c3ccncc3)[nH]2)cc1` (stereo not drawn) [SB 203580]: the remaining activity at 3.75 µM in assay [1] (Well no.=2644) was determined as 91.7%. Moreover, the remaining activity at 1.25 µM in assay [2] (Well no.=2644) stood at 91.3%.
In the case of `CCCCN1CCC(COC(=O)c2cc(Cl)c(N)c3c2OCCO3)CC1` [SB 204070 hydrochloride], the remaining activity at 3.75 µM in assay [1] (Well no.=1170) worked out at 99.4%. Besides, the remaining activity at 1.25 µM in assay [2] (Well no.=1170) stood at 97.3%.
Take `CC#CCOC(=O)c1c(C)nc2sc3c(c2c1N)CCC(O)C3` (stereo not drawn) [SB 205384]: the remaining activity at 3.75 µM in assay [1] (Well no.=1508) worked out at 96.2%. In addition, the remaining activity at 1.25 µM in assay [2] (Well no.=1508) turned out to be 97.4%.
As to `Cn1ccc2cc3c(cc21)CCN3C(=O)Nc1cccnc1` [SB 206553 hydrochloride], in assay [1] (Well no.=1375), the remaining activity at 3.75 µM was found to be 101%. The remaining activity at 1.25 µM in assay [2] (Well no.=1375) was 99.8%.
Consider `Cn1cc(C2=C(c3ccc(Cl)cc3Cl)C(=O)NC2=O)c2ccccc21` [SB 216763 - 3-(2,4-Dichlorophenyl)-4-(1-methyl-1H-indol-3-yl)-1H-pyrrole-2,5-dione], for which the remaining activity at 3.75 µM in assay [1] (Well no.=2442) is 100%. The remaining activity at 1.25 µM in assay [2] (Well no.=2442) was found to be 96.9%.
For the compound `O=C1NC(=O)c2c1c1c3ccccc3n3c1c1c2c2ccccc2n1[C@H]1CC[C@@H]3O1` [SB 218078], the remaining activity at 3.75 µM in assay [1] (Well no.=2648) was found to be 94.3%. In assay [2] (Well no.=2648), the remaining activity at 1.25 µM amounted to 92.1%.
As to `Cc1nc(-c2ccc(-c3ccc(C(=O)N4CCc5cc6c(cc54)C4(CCN(C)CC4)CO6)cc3)c(C)c2)no1` [SB 224289 hydrochloride], the remaining activity at 3.75 µM in assay [1] (Well no.=1423) worked out at 97.3%. Further, in assay [2] (Well no.=1423), the remaining activity at 1.25 µM was 96.6%.
Regarding `COc1nccc(-c2c(-c3ccc(F)cc3)ncn2[C@H]2CC[C@H](O)CC2)n1` [SB 239063 - trans-4-[4-(4-Fluorophenyl)-5-(2-methoxy-4-pyrimidinyl)-1H-imidazol-1-yl]cyclohexanol], the remaining activity at 3.75 µM in assay [1] (Well no.=2478) was determined as 98.4%. For the same compound, in assay [2] (Well no.=2478), the remaining activity at 1.25 µM was 98.8%.
Regarding `COc1nccc(-c2c(-c3ccc(F)cc3)ncn2[C@H]2CC[C@H](O)CC2)n1` [SB 239063], the remaining activity at 3.75 µM in assay [1] (Well no.=2667) was 98%. Further, in assay [2] (Well no.=2667), the remaining activity at 1.25 µM stood at 93%.
As for `Cc1cc2c(cc1Cl)N(C(=O)Nc1ccc(Oc3cccnc3C)nc1)CC2` [SB 242084 dihydrochloride], in assay [1] (Well no.=1222), the remaining activity at 3.75 µM turned out to be 102%. The remaining activity at 1.25 µM in assay [2] (Well no.=1222) turned out to be 102%.
As for `CC1CCN(CC[C@H]2CCCN2S(=O)(=O)c2cccc(O)c2)CC1` [SB 269970 hydrochloride], in assay [1] (Well no.=1220), the remaining activity at 3.75 µM stood at 104%. In assay [2] (Well no.=1220), the remaining activity at 1.25 µM is 102%.
On to `COc1ccc(NS(=O)(=O)c2sc3ccc(Cl)cc3c2C)cc1N1CCNCC1` [SB 271046 (Hydrochloride)], for which the remaining activity at 3.75 µM in assay [1] (Well no.=7863) was determined as 101%. In addition, the remaining activity at 1.25 µM in assay [2] (Well no.=7863) is 102%.
In the case of `COc1ccc(NS(=O)(=O)c2sc3ccc(Cl)cc3c2C)cc1N1CCNCC1` [SB 271046], the remaining activity at 3.75 µM in assay [1] (Well no.=4934) stood at 92.4%. In assay [2] (Well no.=4934), the remaining activity at 1.25 µM worked out at 94.2%.
`CCOC(=O)[C@H](Cc1ccc([N+](=O)[O-])cc1)NC(=O)c1ccccc1` [SB 297006]: the remaining activity at 3.75 µM in assay [1] (Well no.=5801) came out at 98.4%. Besides, the remaining activity at 1.25 µM in assay [2] (Well no.=5801) came to 98.7%.
In the case of `COC(=O)[C@H](Cc1ccc([N+](=O)[O-])cc1)NC(=O)c1cccc2ccccc12` [SB 328437], the remaining activity at 3.75 µM in assay [1] (Well no.=5812) was 93.4%. For the same compound, the remaining activity at 1.25 µM in assay [2] (Well no.=5812) turned out to be 94.2%.
Regarding `NC(=O)c1ccc(-c2nc(-c3ccccn3)c(-c3ccc4c(c3)OCO4)[nH]2)cc1` [SB 431542 - 4-[4-(1,3-benzodioxol-5-yl)-5-(2-pyridinyl)-1H-imidazol-2-yl]benzamide], the remaining activity at 3.75 µM in assay [1] (Well no.=2440) stood at 107%. In assay [2] (Well no.=2440), the remaining activity at 1.25 µM came to 106%.
Turning to `Cc1cccc(-c2[nH]c(C(C)(C)C)nc2-c2ccc3nccnc3c2)n1` [SB 525334], the remaining activity at 3.75 µM in assay [1] (Well no.=4901) was 99.1%. Further, in assay [2] (Well no.=4901), the remaining activity at 1.25 µM is 99.5%.
`Cc1ccc(C(=O)N(CCCN)[C@@H](c2oc3cc(Cl)ccc3c(=O)c2Cc2ccccc2)C(C)C)cc1` [SB 743921]: the remaining activity at 3.75 µM in assay [1] (Well no.=4812) stood at 100%. Also, the remaining activity at 1.25 µM in assay [2] (Well no.=4812) worked out at 97.2%.
Regarding `O=S(=O)(CC1CS1)c1ccc(Oc2ccccc2)cc1` (stereo not drawn) [SB-3CT], the remaining activity at 3.75 µM in assay [1] (Well no.=8478) came to 91.4%. Moreover, the remaining activity at 1.25 µM in assay [2] (Well no.=8478) was 95.9%.
As to `Cn1cc(C2=C(c3ccc(Cl)cc3Cl)C(=O)NC2=O)c2ccccc21` [SB-216763], the remaining activity at 3.75 µM in assay [1] (Well no.=3035) was found to be 89.6%. In addition, in assay [2] (Well no.=3035), the remaining activity at 1.25 µM came to 87.5%.
For the compound `CC[C@H](NC(=O)c1c(C)c(-c2ccccc2)nc2ccccc12)c1ccccc1` [SB-222200], the remaining activity at 3.75 µM in assay [1] (Well no.=7005) amounted to 86.5%. Besides, the remaining activity at 1.25 µM in assay [2] (Well no.=7005) stood at 96.1%.
In the case of `Cc1ccccc1N(C)C(=O)c1ccc([S+]([O-])c2nccs2)c([N+](=O)[O-])c1` (stereo not drawn) [SB-268262], the remaining activity at 3.75 µM in assay [1] (Well no.=5777) was determined as 100%. Further, the remaining activity at 1.25 µM in assay [2] (Well no.=5777) was determined as 99.5%.
On to `CC1CCN(CC[C@H]2CCCN2S(=O)(=O)c2cccc(O)c2)CC1` [SB-269970 (hydrochloride)], for which the remaining activity at 3.75 µM in assay [1] (Well no.=8385) was 101%. Besides, in assay [2] (Well no.=8385), the remaining activity at 1.25 µM was found to be 108%.
`Cc1nc2ccc(NC(=O)Nc3ccnc4cccnc34)cc2o1` [SB-334867 (free base)]: the remaining activity at 3.75 µM in assay [1] (Well no.=6999) stood at 104%. For the same compound, the remaining activity at 1.25 µM in assay [2] (Well no.=6999) came out at 101%.
